Measurements published in patent US11071768B2, “Caspofungin compositions for inhalation” (TRILOGY THERAPEUTICS, INC., priority 2018, dated 2021).
Values after ≈ are worked out from the molar mass of the structure shown. Values joined by “and” are separate entries in the source; they are usually repeats but may differ in a detail not shown here. Equal entries are not always repeated. Each block holds one compound with its values, some of them ahead of it. Starred links: 1 amine or outer side, 2 acyl side, 3 side chain; linkers in the order of their positions; H or OH if unused. Positions of bridges follow the written chain, without caps; N, C: chain ends. Non-standard residues stand in square brackets, D forms with d. Residues, ends and D or L forms follow the SMILES beside them. *: point of attachment. hTyr(3S-OH,4S-OH,3'-OSO3H) = N[C@H](C(=O)O)[C@H](O)[C@@H](O)c1ccc(O)c(OS(=O)(=O)O)c1; pTerphenylCO(4''-OnC5H11) = CCCCCOc1ccc(-c2ccc(-c3ccc(C(=O)*)cc3)cc2)cc1; Orn(4R-OH,5R-OH) = O=C([C@H](C[C@@H](O)[C@@H](O)N[*:3])N[*:1])[*:2]; hTyr(3S-OH,4S-OH) = N[C@H](C(=O)O)[C@H](O)[C@@H](O)c1ccc(O)cc1; Pro(3S-OH,4S-Me) = C[C@H]1CN[C@H](C(=O)O)[C@H]1O; X1 = CCCCCOc1ccc(-c2cc(-c3ccc(C(=O)*)cc3)no2)cc1; Gln(3R-OH) = NC(=O)C[C@@H](O)[C@H](N)C(=O)O; Hyp = O=C(O)[C@@H]1C[C@@H](O)CN1

Tests used:
[1] = rat; cited from earlier work
[2] = test system: Candida tropicalis ATCC 200956; test: In vitro broth microdilution assay (CLSI); type: cell-based
Experimental: (§1) The antifungal potency of the test article(s) was measured using the in vitro broth microdilution assay under assay conditions described by the Clinical and Laboratory Standards Institute. In this assay, the Minimum Inhibitory Concentration (MIC) is defined as the lowest concentration of an agent that causes a specified reduction in visible growth of the microorganism. The Minimal Effective Concentration (MEC) is defined as the lowest concentration of an agent that leads to the growth of small, rounded, compact hyphal forms as compared to the hyphal growth seen in the growth control well. In this study, MIC values are determined for the 9 Candida species and Cryptococcus neoformans. MEC values are determined for 3 filamentous fungi (2 Aspergillus fumigatus and Trichophyton rubrum). Test articles were prepared as the following:
(§2) The 3.2 mg/mL working stock solution was 2-fold diluted serially in 0.9% NaCl to prepare a total of eleven 50-fold stock solutions, concentrations ranging from 3.2 to 0.003 mg/mL. A 4 μL aliquot of each dilution was added to 196 μL of broth medium seeded with the organism suspension in wells of a 96 well plate (fungal cell count: 1×10^3 to 1×10^4 colony forming units per mL). The final volume was 200 μL in each well. Following incubation, the test plates were visually examined and wells were scored for growth or complete growth inhibition to define the MIC values. Microscopy examination was used to determine the MEC values. Each test substance was evaluated in duplicate and the results below are the duplicate test values. Vehicle-control and an active reference agent were used as blank and positive controls, respectively.

[3] = test system: Candida glabrata ATCC 36583; test: In vitro broth microdilution assay (CLSI); type: cell-based
Experimental: as §1, §2

[4] = test system: Candida albicans ATCC44858; test: In vitro broth microdilution assay (CLSI); type: cell-based
Experimental: as §1, §2

[5] = test system: Candida parapsilosis ATCC 22019; test: In vitro broth microdilution assay (CLSI); type: cell-based
Experimental: as §1, §2

[6] = test system: Candida albicans ATCC90028; test: In vitro broth microdilution assay (CLSI); type: cell-based
Experimental: as §1, §2

[7] = test system: Candida albicans Azole-R (20186.025); test: In vitro broth microdilution assay (CLSI); type: cell-based
Experimental: as §1, §2

[8] = test system: Trichophyton rubrum ATCC 10218; test: In vitro broth microdilution assay (CLSI); type: cell-based
Experimental: as §1, §2

[9] = test system: Candida albicans Azole-R (20183.073); test: In vitro broth microdilution assay (CLSI); type: cell-based
Experimental: as §1, §2

Candida krusei ATCC 6258 = test: In vitro broth microdilution assay (CLSI); type: cell-based
Experimental: as §1, §2

[10] = cited from earlier work
[11] = KF water content of lyophilized formulations; type: physicochemical; settings: lyo cake, T0; listed as API (lyo process)
Source text: Tables 17 and 18 summarize the % water content measured of the prepared formulations.

[12] = Storage stability of lyophilized formulations by HPLC; type: physicochemical; settings: for RT 26.1 (hydrolysis degradation product) / RT 37.3 (dimerization degradation product) / HPLC purity % (total caspofungin): lyophilized
Experimental: General: HPLC analysis was carried out on a Waters 2695 separations module equipped with an autosampler and a Waters 996 photodiode array detector. The HPLC method is described below:
Aliquots of 0.5 mL of each formulation listed in Table 3 were frozen on dry ice for 30 min and lyophilized for 40 h to obtain white cakes. A portion of each cake was reconstituted in 1 mL of deionized water and analyzed by HPLC. The vials were stoppered, crimp sealed and placed on stability at 5° C. and 40° C.
Each liquid formulation in Table 5 was equally split into two vials, frozen on dry ice for 1 h and lyophilized for 90 h to obtain white cakes. The vials were stoppered, crimp sealed and placed on stability at 5° C. and 40° C.
The liquid formulations to be lyophilized were prepared according to Table 6. Aliquots of 0.5 mL of each liquid formulation were placed in 3 mL glass vials, frozen on dry ice for 40 min. The vials were partially stoppered with lyo septa and lyophilized for 5 days. The vials were placed on stability at 5° C., ambient (dark) and −20° C.
Fourteen 0.5 mL aliquots of each liquid formulation prepared in part C were placed in 14 3-mL glass vials. The vials were frozen on dry ice for about 1 h and lyophilized for 5 days to obtain white cake. The vials were stoppered, crimp sealed and placed on stability at −20° C., 5° C., and ambient (dark) conditions.
One vial of the lyophilized cake was reconstituted in 1 mL of deionized water to obtain a 10 mg/mL caspofungin diacetate solution. An aliquot (55 μL) was removed and diluted with 1 mL of deionized water for HPLC analysis.
Tables 11, 12, 13, and 14 summarize the total caspofungin (%) as determined by HPLC present for each formulation prepared prior to storage and after several storage conditions. RT as below refers to HPLC retention time. The product with a retention time of 26.1 minutes is a hydrolysis degradation product while the product with a retention time of 37.3 minutes is a dimerization degradation product that is obtained from the dimerization of the hydrolysis products.

[13] = test system: Aspergillus fumigatus ATCC204305; test: In vitro broth microdilution assay (CLSI); type: cell-based
Experimental: as §1, §2

[14] = test system: Aspergillus fumigatus ATCC 13073; test: In vitro broth microdilution assay (CLSI); type: cell-based
Experimental: as §1, §2

[15] = test system: Cryptococcus neoformans ATCC 24067; test: In vitro broth microdilution assay (CLSI); type: cell-based
Experimental: as §1, §2

[16] = Candida albicans ATCC90028 + 50% human serum

Compound: CCCCCOc1ccc(-c2cc(-c3ccc(C(=O)N[C@H]4C[C@@H](O)[C@@H](O)NC(=O)[C@@H]5[C@@H](O)[C@@H](C)CN5C(=O)[C@H]([C@H](O)CC(N)=O)NC(=O)[C@H]([C@H](O)[C@@H](O)c5ccc(O)c(OS(=O)(=O)O)c5)NC(=O)[C@@H]5C[C@@H](O)CN5C(=O)[C@H]([C@@H](C)O)NC4=O)cc3)no2)cc1 [Micafungin, micafungin] (X1-[Orn(4R-OH,5R-OH)]T[Hyp][hTyr(3S-OH,4S-OH,3'-OSO3H)][Gln(3R-OH)][Pro(3S-OH,4S-Me)]; lactam 1-C)
Exposure in the kidney relative to plasma [1]: 3.4 fold
Exposure in the liver relative to plasma [1]: 1.6 fold
Exposure in the lung relative to plasma [1]: 2.9 fold

MIC [2]: 1 µg/mL (≈ 1.08 µM)
MIC [3]: 0.125 µg/mL (≈ 0.135 µM)
MIC [4]: 0.125 µg/mL (≈ 0.135 µM)
MIC [5]: 0.25 µg/mL (≈ 0.271 µM)
MIC ([6]; Candida albicans ATCC90028): 0.125 µg/mL (≈ 0.135 µM)
MIC [6, 16]: 0.25 µg/mL
MIC [7]: 0.25 µg/mL (≈ 0.271 µM)
MIC [8]: 0.125 µg/mL (≈ 0.135 µM)
MIC [9]: 0.125 µg/mL (≈ 0.135 µM)
MIC (Candida krusei ATCC 6258): 0.25 µg/mL (≈ 0.271 µM)
Compound: C[C@@H]1[C@H](O)[C@@H](C)/C=C/C=C/C=C/C=C/C=C/C=C/C=C/[C@H](O[C@@H]2O[C@H](C)[C@@H](O)[C@H](N)[C@@H]2O)C[C@@H]2O[C@](O)(C[C@@H](O)C[C@@H](O)[C@H](O)CC[C@@H](O)C[C@@H](O)CC(=O)O[C@H]1C)C[C@H](O)[C@H]2C(=O)O [amphotericin B]

Compound: CCCCCOc1ccc(-c2ccc(-c3ccc(C(=O)N[C@H]4C[C@@H](O)[C@@H](O)NC(=O)[C@@H]5[C@@H](O)[C@@H](C)CN5C(=O)[C@H]([C@@H](C)O)NC(=O)[C@H]([C@H](O)[C@@H](O)c5ccc(O)cc5)NC(=O)[C@@H]5C[C@@H](O)CN5C(=O)[C@H]([C@@H](C)O)NC4=O)cc3)cc2)cc1 [anidulafungin] ({pTerphenylCO(4''-OnC5H11)}-[Orn(4R-OH,5R-OH)]T[Hyp][hTyr(3S-OH,4S-OH)]T[Pro(3S-OH,4S-Me)]; lactam 1-C)
Time that levels stay above MICs for common pathogens ([10]; rat tissues): 72 h
Exposure in tissues (liver, lung, spleen, kidney) relative to plasma ([10]; rat): 9-12 fold
Time to peak concentrations in tissues ([10]; rat): ≤ 30 min

Compound: caspofungin diacetate
KF water content % [11]: 6.16% and 3.94%
HPLC purity of control ([12]; Pure API control, as printed in the head): 99.72%)
RT 26.1 (hydrolysis degradation product) ([12]; 40° C. 1 week): 2.88%
RT 37.3 (dimerization degradation product) ([12]; 40° C. 1 week): 9.26%
HPLC purity % (total caspofungin) ([12]; 40° C. 1 week, listed as API (lyo process)): 82.32%
HPLC purity % (total caspofungin) ([12]; 40° C. 1 week, listed as Pure API): 88.48%
HPLC purity % (total caspofungin) ([12]; 40° C. 3 week): 75.71%
RT 26.1 (hydrolysis degradation product) ([12]; 40° C. 3 week): 6.09%
RT 37.3 (dimerization degradation product) ([12]; 40° C. 3 week): 4.38%
RT 26.1 (hydrolysis degradation product) ([12]; T0): 2.17%
RT 37.3 (dimerization degradation product) ([12]; T0): 1.57%
HPLC purity % (total caspofungin) ([12]; T0, listed as API (lyo process)): 95.82% and 95.42%
MEC [13]: 0.125 µg/mL
MIC [2]: 0.25 µg/mL
MIC [3]: 0.25 µg/mL
MIC [4]: 0.25 µg/mL
MIC [5]: 1 µg/mL
MEC [14]: 0.0625 µg/mL
MIC ([6]; Candida albicans ATCC90028): 0.25 µg/mL
MIC [6, 16]: 0.125 µg/mL
MIC [15]: 16 µg/mL
MIC [7]: 0.25 µg/mL
MEC [8]: 0.125 µg/mL
MIC [9]: 0.25 µg/mL
MIC (Candida krusei ATCC 6258): 1 µg/mL
